2 compounds from patent publication US9212178B2, “Substituted pyrimidine compounds and their use as SYK inhibitors” (Genosco, priority 2013, dated 2015) can be followed below.

Like-named read-outs stand apart in the source and are kept apart here.

For one experiment, the system named is SUDHL6. Description: DLBCL cell proliferation, ATPLite assay. Conditions: for IC50: SUDHL6, 72 hours, read-out: Inhibition of proliferation IC50. Type of experiment: cell-based, human. An excerpt:
(§1) Several lines of evidence support the role of B cell receptor (BCR)-mediated survival signals in certain B cell malignancies such as non-Hodgkin lymphomas (NHL) including diffuse large B cell lymphoma (DLBCL). B cell receptor (BCR) signaling pathway components represent promising treatment targets in diffuse large B cell lymphoma (DLBCL) and additional B cell tumors. In order to address whether SYK inhibitor of Compounds of Formula (I), cellular viability of diffuse large B cell lymphoma (DLBCL) cells was measured on treatment of a series of concentration of SYK inhibitor.
(§2) The DLBCL cells, SUDHL4, SUDHL6 and OCI-LY1 […] were obtained from the American Type Culture Collection (ATCC, Manassas, Va., USA) or DSMZ (Braunschweig, Germany). […] The SUDHL4, SUDHL6 and OCI-LY1 cells were seeded at 1×10^5 cells/100 μL/well into 96 well culture plate, and serially diluted compound was then added. After an 72 hours of incubation period at 37° C., cells were subjected to an ATPLite assay (PerkinElmer) to determine the cytotoxic effects of the compound. The IC50 value of the test compound was calculated at Gradpad Prism 5 unless otherwise specified.
(In general: ATP-based viability assays read luminescence as a measure of living cells.)

The next experiment relates to OCI-LY1. Description: DLBCL cell proliferation, ATPLite assay. Type of experiment: cell-based, human. Conditions: for IC50: OCI-LY1, 72 hours, read-out: Inhibition of proliferation IC50.
Text: as §1, §2

For a further experiment, the system named is SUDHL4. Description: DLBCL cell proliferation, ATPLite assay. Type of experiment: cell-based, human. Conditions: for IC50: SUDHL4, 72 hours, read-out: Inhibition of proliferation IC50.
Text: as §1, §2

Another experiment deals with full-length human SYK (Homo sapiens (Human), UniProt P43405). Description: Inhibition of enzymatic SYK kinase activity (LANCE Ulight TK peptide). Type of experiment: biochemical. Conditions: ATP at Km (15 uM), 30 min pre-incubation. Here is the method: Compounds of the present invention were assayed to measure their capacity to inhibit a spleen tyrosine kinase (SYK).
Compounds of the invention were initially diluted to 10 mM in 100% DMSO (CALBIOCHEM™) for storage and made into kinase buffer solution to create a compound concentration ranging from 1 uM and 10 uM. Serial dilutions of compounds of the invention were dispensed into a 96-well plate (GREINER BIOSCIENCES™) at 6 μL each. Purified full-length human SYK (CARNA BIOSCIENCES™) were diluted in kinase buffer and added to the compound solutions and pre-incubated for 30 minutes at room temperature. […] The reaction mixture was incubated for 1 hour. Following the incubation, the stop solution made with EDTA, water, and Lance detection buffer ([…]™) was added (12 μL each) to stop phosphorylation.
For orientation: Time-resolved FRET reads energy transfer from a long-lived donor to a nearby acceptor.

Experiment [1] deals with Human peripheral CD19+ B cells. Description: Cellular SLE model: immunoglobulin production in human peripheral B cells stimulated via TLR9 (ODN2006). Type of experiment: cell-based. Conditions: for IC50: human B cell, ODN2006 and IL-2, 6 days. An excerpt:
Systemic lupus erythematosus (SLE) is a chronic inflammatory autoimmune disease and can affect several organs and systems. It is characterized by high production of autoantibodies against nuclear compounds. TLR7/8/9 are responsible for nucleic acid recognition and they trigger proinflammatory responses through activation of […] and Type I IFN production, making a bridge between the innate and the adaptive immune systems. TLR9 signaling pathway was adopted for cellular SLE model using human peripheral B cells to test potency of SYK inhibitor of Formula (I).
Human peripheral CD19+ B cells from an adult healthy donor were purchased from Sanguine Biosciences (Sherman Oaks, Calif.). B cells were cultured in 96-well plates with complete RPMI 1640 medium (Corning, Tewksbury, Mass.) supplemented with 10% heat-inactivated FBS (Life Technologies, Grand Island, N.Y.) and penicillin/streptomycin (Corning). B cells were stimulated with 1 μM ODN2006 (InvivoGen, San Diego, Calif.) and 20 ng/ml IFNα (PBL Assay Science, Piscataway, N.J.) for 3 days for toll-like receptor-9 (TLR-9)-mediated B cell growth. To differentiate naïve B cells into plasma cells, peripheral B cells were differentiated with 50 nM ODN2006 and 10 ng/ml IL-2 in a presence of various concentrations of SYK inhibitors for 6 days. Culture supernatants were collected and IgM and IgG production was measured using human IgM or IgG ELISA kit (BioLegend).

In a further experiment the test system is THP-1 cells. Description: SYK-dependent TNF-α release assay (IgG stimulation), ELISA. Conditions: THP-1 cells on human IgG-coated plate, 18 hours; read-out: TNF-α release inhibition, IgG stimulation IC50. Type of experiment: cell-based. On the procedure: In order to address cellular potency of Compounds of Formula (I), TNF-a production was measured on treatment of a series of concentration of SYK inhibitor in THP-1 cells.
For SYK-dependent TNF-α release assay (i.e., via IgG stimulation), THP-1 cells derived from human monocytic cells were obtained from the American Type Culture Collection (ATCC, Manassas, Va.). This cell line was maintained with a Roswell Park Memorial Institute (RPMI) medium (GIBCO) containing 10% fetal bovine serum (FBS; GIBCO) and 0.05 mM solution of 2-mercaptoethanol. The THP-1 cells were seeded at 1×10^5 cells/100 μL/well into human IgG (10 ng/well, INVITROGEN)-coated 96 well culture plate, and serially diluted compound was then added. After an 18 hours of incubation period at 37° C., supernatants were collected for the determination of the TNF-α level by enzyme-linked immunosorbent assay (ELISA), and the remaining cells were subjected to an MTT (yellow tetrazolium salt) assay to determine the cytotoxic effects of the compound. The IC50 value of the test compound was calculated at Gradpad Prism 5 unless otherwise specified.
(ELISA stands for enzyme-linked immunosorbent assay.)

Take `Cn1cc(C(=O)C2CC2)c2cc(Nc3nccc(-n4cc(CN5C[C@H](O)CO5)cn4)n3)ccc21` [Compound 30, (S)-cyclopropyl(5-(4-(4-((4-hydroxyisoxazolidin-2-yl)methyl)-1H-pyrazol-1-yl)pyrimidin-2-ylamino)-1-methyl-1H-indol-3-yl)methanone]: the IC50 in the experiment on SUDHL6 (Homo sapiens, SU-DHL-6) came to 929 nM; with OCI-LY1 (Homo sapiens), 2300 nM; in the experiment with SUDHL4 (Homo sapiens, SU-DHL-4) it was 952 nM; against full-length human SYK, 2.46 nM; in experiment [1] (144 h, read-out: Inhibition of immunoglobulin production, IgG IC50) it was 188 nM; in experiment [1] (144 h, read-out: Inhibition of immunoglobulin production, IgM IC50), 90 nM. Besides, the IC50 in the experiment on THP-1 cells amounted to 17 nM. The “Inhibition of proliferation (in words)” value in the experiment on SUDHL6 (SUDHL6), in the experiment on OCI-LY1 (OCI-LY1) and with SUDHL4 (SUDHL4) was “potent inhibition” each time. Also, in experiment [1] (TLR9 stimulated by ODN2006 and IFNα), the “Inhibition of IgG and IgM production (in words)” value is listed as “potent inhibition”.

Turning to `COc1cc(Nc2ncc(F)c(Nc3ccc4c(n3)NC(=O)C(C)(C)O4)n2)cc(OC)c1OC` [Compound R406, reference compound], the IC50 stood at 3230 nM in the experiment with SUDHL6; 3890 nM in the experiment on OCI-LY1; 3670 nM with SUDHL4; 369 nM in experiment [1] (read-out: Inhibition of immunoglobulin production, IgG IC50); 180 nM in experiment [1] (read-out: Inhibition of immunoglobulin production, IgM IC50); 217 nM in the experiment with THP-1 cells.
